Data on one compound can be found in article PMC7179450, “Primary Human Hepatocytes, But not HepG2 or Balb/c 3T3 Cells, Efficiently Metabolize Salinomycin and Are Resistant to Its Cytotoxicity” (Molecules, 2020).

Data set [1] concerns primary human hepatocytes (PHH). In words: TPC assay (total protein content) in primary human hepatocytes. The format is cell-based. Particulars: Hepatocyte, mean ± SEM, n = 3, read-out: EC50 (effective concentration). As to the method:
Cryopreserved PHH were purchased from the Primacyt GmbH (Schwerin, Germany). Two different lots were chosen based on CYP activity. The donor was a person. The post-thaw viability was 94.6% for lot HH160531 (used in two repetitions) and 85.0% for lot HH130805. The initial cell viability was determined with the trypan blue exclusion test. The cells were thawed and purified using the Plating and Thawing Kit (Primacyt GmbH). Purified hepatocytes were resuspended in Hepatocyte Plating Medium (Primacyt GmbH) and seeded on collagen-coated 96-well plates at a density of 9 × 10^5 cell/mL and incubated at 37 °C with 5% CO2. After 6 h of incubation, the medium was removed and the cells were washed with PBS. Then Human Hepatocyte Maintenance Medium (HHMM) (Primacyt GmbH) with the studied drugs was added to hepatocytes (100 µL/well). The culture conditions were kept according to the manufacturer’s protocol.
The concentration ranges of the drugs were chosen according to their solubility and their plasma level. Each drug was dissolved in DMSO. […] The cytotoxicity was assessed after 24 and 48 h of exposure of cell lines or after 12 and 24 h exposure of PHH. […]
The assay was based on staining total cellular protein [14]. […] The absorbance was measured at 595 nm in a microplate reader using blank as a reference. Cytotoxicity was expressed as a percentage of the negative control (0.1% or 0.2% DMSO).

The subject of a further data set is Balb/c 3T3 cells. Kind of data set: NRU assay in Balb/c 3T3. The following applies: for EC50: Mus musculus, read-out: EC50 (effective concentration). Type of data set: cell-based, mouse. As to the method: The HepG2 cell line was purchased from the American Type Culture Collection (ATCC® HB-8065™). The cells were cultured in Minimum Essential Medium Eagle (MEME) (Sigma–Aldrich Co. (St. Louis, MO, USA)). Normal murine embryonic fibroblasts, Balb/c 3T3 clone A31 cell line (gift from Department of Swine Diseases of the National Veterinary Research Institute in Pulawy) was cultured in Dulbecco’s Modified Eagle’s Medium (DMEM) (Invitrogen Corporations (Paisley, UK)). The media were supplemented with 10% BCS (Balb/c 3T3), 10% FBS (HepG2), 1% L-glutamine, and 1% antibiotic solution. The cells were maintained in 75 cm^2 cell culture flasks in humidified incubator at 37 °C, in an atmosphere of 5% CO2. The medium was refreshed every two or three days and the cells were trypsinized by 0.25% trypsin–0.02% EDTA after reaching 70–80% confluence. The initial cell viability was determined with the trypan blue exclusion test. Single cell suspensions were prepared and adjusted to a density of 2 × 10^5 cell/mL (HepG2) and 1 × 10^5 cell/mL (Balb/c 3T3). The cell suspension was transferred to 96-well plates (100 µL/well) and incubated for 24 h before exposure to the studied drugs.
(§1) The concentration ranges of the drugs were chosen according to their solubility and their plasma level. Each drug was dissolved in DMSO. The final concentration of DMSO was 0.1% or 0.2% in the medium for both samples and corresponding controls. […] All drug solutions in medium were freshly prepared and protected from light. SAL was tested in seven concentrations from 0.39 to 25 µg/mL. […] The cytotoxicity was assessed after 24 and 48 h of exposure of cell lines or after 12 and 24 h exposure of PHH. […]
The assay, based on staining of living cells by neutral red (NR), was performed according to the protocol described by Borenfreund and Puerner. […] After 10 min of shaking, the absorbance of the dissolved NR was measured at 540 nm using a blank as a reference. Cytotoxicity was expressed as a percentage of the negative control (0.1% or 0.2% DMSO).

The nature of data set [2]: Cytotoxicity battery in fibroblasts. The format is cell-based. Particulars: mouse, Balb/c 3T3 fibroblasts, inhibiting lysosomal and mitochondrial activity and synthesis of cellular proteins, read-out: cytotoxic concentrations. As to the method:
as §1, with “µg/mL. Tiamulin was added in two concentrations (1 and 10 µg/mL) or just one concentration (1 µg/mL) to cell lines or human hepatocytes, respectively. Prednisolone was tested in one concentration—1 µg/mL independent of the type of cells.” for “µg/mL.”
The metabolic activity of living cells was assessed by measuring the activity of dehydrogenases. […] The plate was shaken for 15 min at room temperature and transferred to a microplate reader to measure the absorbance at 570 nm, using a blank as a reference. Cytotoxicity was expressed as a percentage of the negative control (0.1% or 0.2% DMSO).
The assay, based on staining of living cells by neutral red (NR), was performed according to the protocol described by Borenfreund and Puerner. […] After 10 min of shaking, the absorbance of the dissolved NR was measured at 540 nm using a blank as a reference. […]

Another data set has as its system dogs. Particulars: chronic toxicity study in dogs; cited from earlier work.
The test system of another data set is turkeys. The following applies: cited from earlier work.
The test system of a further data set is hepatoma tumor. The following applies: mice, doses of 4 and 8 mg/kg b.w.; cited from earlier work.
Another data set concerns cell lines. Particulars: cited from earlier work.

Like-named read-outs stand apart in the source and are kept apart here. Bounds are passed on as bounds.

For `CC[C@@H](C(=O)[C@@H](C)[C@@H](O)[C@H](C)[C@@H]1O[C@@H]([C@@H](CC)C(=O)O)CC[C@@H]1C)[C@H]1O[C@]2(C=C[C@@H](O)[C@]3(CC[C@@](C)([C@H]4CC[C@](O)(CC)[C@H](C)O4)O3)O2)[C@H](C)C[C@@H]1C` [SAL, salinomycin], the EC50 in data set [1] (12 h exposure) is > 25 µg/mL; in data set [1] (24 h exposure), > 25 µg/mL; with Balb/c 3T3 cells (BALB/c3T3, 24 h), 0.6 ± 0.2 µg/mL; with Balb/c 3T3 cells (BALB/c3T3, 48 h) it was < 0.39 µg/mL; in data set [2], 0.6 to 10 µg/mL; in the data set on cell lines it was 0.1 to 30 µM. Also, the “lowest concentration with significant effect on lysosomal activity” value in the data set with Balb/c 3T3 cells (Balb/c 3T3, 24 h, SAL alone or in both drug combinations (Figure S3)) is on record as 0.39 µg/mL. Also, in the data set with dogs, the “NOAEL (No Observed Adverse Effect Level)” value is on record as 500 µg/kg b.w. In the data set with turkeys, the LD50 is 0.6 mg/kg b.w. For the same compound, in the data set on hepatoma tumor, the “effect on hepatoma tumor” value is listed as “significantly reducing the hepatoma tumor”. Further, the “EC50 values, cytotoxicity to cell lines” value with cell lines is 0.08 to 22.5 µg/mL.
